Test results: ChEMBL document CHEMBL4000212, “New furoxan derivatives for the treatment of ocular hypertension” (Bioorg Med Chem Lett, 2017)

Key:
[1] = Induction of NO release assessed as nitrite formation at 0.1 mM in phosphate buffer saline at pH 7.4 in presence of 5 mM L-cysteine measured after 1 hr by Griess assay
[2] = Induction of NO release assessed as nitrite formation at 0.1 mM in phosphate buffer saline at pH 7.4 in absence of L-cysteine measured after 1 hr by Griess assay
[3] = Solubility in pH 6 phosphate buffer /5% cremophor EL/0.3% DMSO/0.2 mg/ml bac solution at 10 mg incubated in magnetic stirrer for 1 hr; type: physicochemical; settings: pH 6, 1 h
[4] = Ionization constant of the compound assessed as ionization level by potentiometric titration; type: physicochemical
[5] = Induction of NO release assessed as nitrite formation at 0.1 mM in phosphate buffer saline at pH 7.4 in presence of 0.5 mM L-cysteine measured after 1 hr by Griess assay
[6] = Solubility of the compound in water at 5 mg incubated in magnetic stirrer for 1 hr; type: physicochemical
[7] = n-Octanol-water distribution coefficient, log D of the compound at pH 7.4 after 20 mins by UV-spectrometric based shake-flask method; type: physicochemical
[8] = Ionization constant, pKa of the compound by potentiometric titration; type: physicochemical
Oryctolagus cuniculus [9] = test: Antiglaucoma activity in hypertonic saline-induced New Zealand white rabbit transient ocular hypertensive model assessed as IOP lowering efficacy at 0.5% administered topically immediately after hypertonic saline injection measured at 120 mins post dose; type: functional
Oryctolagus cuniculus [10] = test: Antiglaucoma activity in hypertonic saline-induced New Zealand white rabbit transient ocular hypertensive model assessed as IOP lowering efficacy at 0.5% administered topically immediately after hypertonic saline injection measured at 60 mins post dose; type: functional
Oryctolagus cuniculus [11] = test: Antiglaucoma activity in hypertonic saline-induced New Zealand white rabbit transient ocular hypertensive model assessed as IOP lowering efficacy at 30 uL administered topically immediately after hypertonic saline injection measured at 60 mins post dose; type: functional
Oryctolagus cuniculus [12] = test: Antiglaucoma activity in hypertonic saline-induced New Zealand white rabbit transient ocular hypertensive model assessed as IOP lowering efficacy at 30 uL administered topically immediately after hypertonic saline injection measured at 120 mins post dose; type: functional
Oryctolagus cuniculus [13] = test: Antiglaucoma activity in hypertonic saline-induced New Zealand white rabbit transient ocular hypertensive model assessed as IOP lowering efficacy at 30 uL administered topically immediately after hypertonic saline injection measured at 240 mins post dose; type: functional
Oryctolagus cuniculus [14] = test: Antiglaucoma activity in hypertonic saline-induced New Zealand white rabbit transient ocular hypertensive model assessed as IOP lowering efficacy at 30 uL administered topically immediately after hypertonic saline injection measured at 30 mins post dose; type: functional

Structure (SMILES)	Activity [1]	Activity [2]	solubility [3]	Activity [4]	Activity [5]	solubility at 1 h [6]	logD at 20 min [7]	pKa [8]	Activity (Oryctolagus cuniculus [9])	Activity (Oryctolagus cuniculus [10])	Activity (Oryctolagus cuniculus [11])	Activity (Oryctolagus cuniculus [12])	Activity (Oryctolagus cuniculus [13])	Activity (Oryctolagus cuniculus [14])
N#Cc1c(CN2CCC(Br)CC2)no[n+]1[O-].O=C(O)C(=O)O	40.5%	0%	Insoluble	< 0.1%	15.9%	< 0.5 mg/mL	2.31	4.01						
CC(C)(C)NC[C@H](O)COc1nsnc1N1CCOCC1 [TIMOLOL]									-7.33 mmHg	-7.17 mmHg				
CCN(C)Cc1no[n+]([O-])c1C#N.O=C(O)C(=O)O	40.9%	0%	Soluble	2.4%	17.5%	> 30 mg/mL	1.31	5.79						
CCOC(=O)/N=c1\c[n+](N2CCOCC2)[n-]o1											-7.83 mmHg	-8.17 mmHg		
CN(C)Cc1no[n+]([O-])c1C#N.O=C(O)C(=O)O	43.9%	0%	Soluble	2.6%	16.1%	> 30 mg/mL	0.87	5.82			-14.4 mmHg	-11.2 mmHg	-8.6 mmHg	
CC(C)N(Cc1no[n+]([O-])c1C(N)=O)C(C)C	11.6%	0%	Insoluble	14.2%	1.2%	< 0.5 mg/mL	1.4	6.62						
CN(C)Cc1no[n+]([O-])c1C(N)=O	12.8%	0%	Soluble	12.9%	1.4%	> 30 mg/mL	-0.03	6.57			-12 mmHg	-8.6 mmHg		
CN(C)CCCN(C)Cc1no[n+]([O-])c1C#N.O=C(O)C(F)(F)F	40.1%	0%	Soluble	98.8%	13.5%	> 30 mg/mL	-0.73	3.34 to 9.3						
NC(=O)c1c(CO)no[n+]1[O-]	12%	0%	Soluble		1.8%	> 30 mg/mL	-1.48				-4.8 mmHg	-2.9 mmHg		
N#Cc1c(CN2CCN(c3ncccn3)CC2)no[n+]1[O-]	41.5%	0%	Insoluble	0.9%	14.4%	< 0.5 mg/mL	0.97	2 to 5.38						
CCN(CC)Cc1no[n+]([O-])c1C#N.O=C(O)C(=O)O	41.3%	0%	Soluble	2.5%	15.5%	> 30 mg/mL	1.98	5.8			-8.9 mmHg	-4.8 mmHg		
Cc1c(OCCN)no[n+]1[O-].O=C(O)C(=O)O	< 1%	0%	Soluble	95.2%	0%	> 30 mg/mL	-1.54	8.7			-11.9 mmHg	-8.8 mmHg		
CCCN(CCC)Cc1no[n+]([O-])c1C#N.O=C(O)C(=O)O	42.3%	0%	Soluble	1.1%	18.1%	2 mg/mL	2.74	5.46			-5.3 mmHg	-2.8 mmHg		-8.5 mmHg
N#Cc1c(CN2CCNCC2)no[n+]1[O-].O=C(O)C(F)(F)F		0%	Soluble	96.3%	15.4%	> 30 mg/mL	-1.32	2 to 8.81			-11.5 mmHg	-10.6 mmHg		
Cc1c(OCCN(C)C)no[n+]1[O-].O=C(O)C(=O)O	< 1%	0%	Soluble	76%	0%	> 30 mg/mL	-0.28	7.9			-14 mmHg	-9 mmHg		
CC(C)N(Cc1no[n+]([O-])c1C#N)C(C)C.CS(=O)(=O)O	41.9%	0%	Soluble	0.9%	16.5%	> 30 mg/mL	2.35	5.35						
CCN(Cc1ccccc1)Cc1no[n+]([O-])c1C#N.O=C(O)C(=O)O	41.7%	0%	Insoluble	1.5%	16.4%	< 0.5 mg/mL	2.62	5.58						
